The values below come from patent publication US20100216761A1, “NOVEL AZETIDINONES USEFUL AS INHIBITORS OF ELASTASE” (priority 2007, published 2010).

For orientation: kinact/KI means the maximal inactivation rate divided by the concentration that gives half of it. As a reminder, the half-life is the time needed for the level to fall by half in the phase considered. Lower therefore signals rapid decline.

Series [1] has as its target T1, Human Leukocyte Elastase (HLE) (Homo sapiens, UniProt P08246).
T1 construct: The PMN lysates were prepared by isolating human neutrophils from whole blood; from tissue; host or cells: human neutrophils (PMN) isolated from whole blood, lysed by sonication in PBS
T1 sequence (P08246 30-267): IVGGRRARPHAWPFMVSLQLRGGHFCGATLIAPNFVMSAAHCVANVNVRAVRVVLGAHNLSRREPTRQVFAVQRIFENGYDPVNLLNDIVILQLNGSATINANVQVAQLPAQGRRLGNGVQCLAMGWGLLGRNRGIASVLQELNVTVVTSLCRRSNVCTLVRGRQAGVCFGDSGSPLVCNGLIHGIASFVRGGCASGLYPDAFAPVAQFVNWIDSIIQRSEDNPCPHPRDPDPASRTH
Nature of the series: HLE time-dependent inactivation assay, purified elastase. In kind it is biochemical. The note with it: purified elastase 3 nM; inhibitor 26.5 nM; substrate 1 mM. On the procedure:
(§1) As exemplified in Table 1, the Examples 1-6 of this application were determined to be potent, mechanism-based inactivators of Human Leukocyte Elastase (HLE) in two different in vitro time-dependent incubation assays. The two assays are described at the end of this Biological Data Section in Note 1. See the literature references in Note 2 for a discussion of the mechanism for this type of beta-lactam inactivation of HLE. Two sources of enzyme were used; either purified elastase or crude extracts of human polymorphonuclear leukocytes (PMN) containing elastase activity. […] For the compound of Example 1, the results were 638,000 M^−1 sec^−1 (average of n=3) and 809,000 M^−1 sec^−1 (n=4), respectively, and for Example 3, 804,000 M^−1 sec^−1 (average of n=4) and 952,000 M^−1 sec^−1 (n=5). […] Note that in this assay, head-to-head comparisons are particularly valuable.
(§2) Note 1: Enzyme Assays for the Inhibition of Human Polymorphonuclear Leukocyte Elastase Via Hydrolysis of N-Methyoxysuccinyl-alanyl-alanyl-prolylalanine-p-nitroanilide Reagent.
(§3) Prepare substrate by first dissolving in DMSO to 30 mg/ml (50 mM). Further dilute the substrate to 10 mM and add 25 μl to a final volume of 250 μl for a final concentration of 1 mM in the assay.
(§4) Prepare the enzyme in TES Buffer (0.045M TES (N-tris[hydroxymethyl]methyl-2-mino-ethanesulfonic acid), 0.45 M NaCl, pH 7.5.). Two sources of enzyme were used; either crude extracts of human polymorphonuclear leukocytes (PMN) containing elastase activity or purified elastase. The PMN lysates were prepared by isolating human neutrophils from whole blood after dextran sedimentation, ficoll density separation and red blood cell lysis. The neutrophils were lysed in PBS with sonciation and the concentration of active enzyme was determined by utilizing a standard curve of purified enzyme. For the purified elastase, the enzyme was resuspended at 10 mg/ml (˜340 μM) in 0.02M NaOAc, 50% glycerol. For both the PMN lysate and purified enzyme, a further dilution of enzyme was made to 30 nM and 25 μl was added to a final volume of 250 μl. The final concentration of enzyme in the assay was 3 nM.
(§5) The inhibitors to be tested were dissolved in DMSO at 10 mM. Directly before use, the inhibitors were further diluted into TES Buffer to 265 nM and […] was added to a final volume of 250 μl. The final concentration of inhibitor in the assay was 26.5 nM.
(§6) In a 96-well plate (flat bottom, polystyrene) 175 μl TES Buffer, 25 μl substrate, 25 μl inhibitor and 25 μl enzyme were added. After thoroughly mixing, the plate was then read in a spectrophotometer at 410 nm for 30 minutes counting every 10 seconds. Results were expressed as Kinact/Ki which is the second order rate constant in per mole per second for inactivation of the enzyme.

Series [2] has as its target T1, Human Leukocyte Elastase (HLE). Kind of series: HLE time-dependent inactivation assay, PMN cell lysate source of HLE. In kind it is biochemical. Particulars: 3 nM, inhibitor 26.5 nM, substrate 1 mM. As for the experimental part:
as §1, §2, §3, §4, §5, §6

Series [3] is described as follows: Human liver microsome stability (Assays #1-#4). Particulars: Assay #1, substrate 1 μM, protein 0.1 mg/mL, 37° C.; for half-life at 1 μM: human, liver microsomes. In kind it is in vitro ADME. As for the experimental part:
The results for Examples 1 and 3 were t112=87 and 32 minutes with 78% and 60% remaining after 30 minutes, respectively, compared to shorter half-lives and lesser amounts left for Examples 2 and 4-6 (see Note 6 for conditions).
Under similar in vitro human liver microsome preparation stability assay conditions at 37° C. for 30 or 60 minutes in a separate head-to-head experiments (Assay #2 and #3) (see Note 6 for conditions) with Examples 1 and 3 and the comparator Compound #290 from U.S. Pat. No. 5,591,737, the amounts left after the 30 minute incubation (with […] microsome protein vs 0.1 mg/mL for Assay #3) were 67, 99 and 79% and for the 60 minute incubation were 94, 73 and 77%, respectively. Similarly, in a third repeat assay (Assay #4 with—NADPH controls) (see Note 6 for conditions), 90 and 72% were remaining for Example 1 and the comparator compound, respectively. […]
Note 6: Human Liver Microsome Assay # 1-3 conditions. • Assay experiment #1: Substrate concentration=1 μM; Protein concentration=0.1 mg/mL; incubation time=30 minutes at 37° C. • Assay experiment #2: Substrate concentration=1 μM; Protein concentration 0.1 mg/mL; incubation time=30 minutes at 37° C. • Assay experiment #3: Substrate concentration=1 μM; Protein concentration=0.1 mg/mL; incubation time=60 minutes at 37° C. • Assay experiment #4: Substrate concentration=1 μM; Protein concentration=1.0 mg/mL; incubation time=60 minutes at 37° C.
For orientation: Liver microsomes are vesicles of endoplasmic reticulum, rich in cytochrome P450 enzymes.

On to `CCC[C@@H](NC(=O)N1C(=O)C(CC)(CC)[C@@H]1Oc1ccc(C(=O)N(C)CCN(C)C)cc1)c1ccc(C(F)(F)F)cc1` [Example 4, 2-(S)-[4-(((2-(Dimethylamino)ethyl)methylamino)carbonyl)phenoxy]-3,3-diethyl-N-[1-(R)-(4-(trifluoromethyl)phenyl)butyl]-4-oxo-1-azetidinecarboxamide], for which the kinact/KI in series [1] came to 290000 M⁻¹ s⁻¹; in series [2] it was 427000 M⁻¹ s⁻¹. For the same molecule, in series [3], the “% Left @ 30 min” value is 51%. The half-life at 1 μM in series [3] is 25 min.

As for `CCC[C@@H](NC(=O)N1C(=O)C(CC)(CC)[C@@H]1Oc1ccc(C(=O)N(CC)CCN(CC)CC)cc1)c1ccc(C(F)(F)F)cc1` [Example 5, 2-(S)-[4-(((2-(Diethylamino)ethyl)ethylamino)carbonyl)phenoxy]-3,3-diethyl-N-[1-(R)-(4-(trifluoromethyl)phenyl)butyl]-4-oxo-1-azetidinecarboxamide], the kinact/KI in series [2] amounted to 375000 M⁻¹ s⁻¹. Besides, in series [3], the “% Left @ 30 min” value is on record as 31% and the half-life at 1 μM amounted to 30 min.
